Source: patent publication US7842808B2, “Anti-migraine spirocycles” (Bristol-Myers Squibb Company, priority 2002, dated 2010)
Where two headings read alike, the source gives them in different places.

Tests used:
[1] = system: CGRP-induced increase in laser Doppler facial blood flow; experiment: Non-terminal laser Doppler facial blood flow model in non-human primate; assay type: in vivo, common marmoset (Callithrix jacchus); conditions: for % Inhibition of CGRP-induced increase in laser Doppler facial blood flow: iv, CGRP 10 μg/kg; for inhibition of CGRP-induced increase in laser Doppler facial blood flow (in words): delivered prior to hαCGRP (pre-treatment)
Source text: Overview. […] Non-human primates (e.g., marmosets) are the only animals known to have human-like CGRP receptor pharmacology conferred by the presence of the specific amino acid residue (Trp74) in their RAMP1 sequence which is responsible for the phenotype of the human receptor (Mallee et al. J Biol Chem 2002 277:14294). […] Peptide and small-molecule CGRP-receptor antagonists were used to validate the non-human primate model.
Animals. Adult male and female common marmosets (Callithrix jacchus) purchased from Harlan and weighing 350-550 g served as subjects. Other mammals endogenously expressing RAMP1 having Trp 74 or transgenic mammals with humanized RAMP1 having Trp 74 can also be employed in A compound described herein.
Anesthesia & Surgical Preparation. Animals are anesthetized by isoflurane inhalation in an induction chamber (4-5% rapid induction, maintained with 1-2.5%; Solomon et al., 1999). Anesthesia is maintained by delivering a constant supply of air:oxygen (50:50) and isoflurane via face mask, or by intubation and ventilation (with blood gas monitoring). Body temperature is maintained at 38±0.5° C. by placement on an automated temperature controlled surface with rectal probe. A small area of fur (approx. 1.5 cm square) is removed from one or both sides of the face by application of a depilatory cream and/or shaving. Surgical areas are clipped and prepared with betadine. An i.v. line is placed in any accessible vein for the administration of test compounds and CGRP-receptor agonist and, if needed, withdrawal of blood samples (max 2.5 ml, 10%) for blood gas monitoring and content analysis. A solution of 5% dextrose is administered i.v. in order to maintain blood sugar levels. Anesthesia depth is monitored by measuring blood pressure and heart rate using a non-invasive arm cuff method and a pulse oximeter, respectively. Guanethidine 5-10 mg/kg i.v., supplemented with 5 mg/kg i.v. as needed, may be given to stabilize the peak flux in facial blood flow seen with repeated stimulation-induced changes in blood flow (Escott et al., 1999; incorporated by reference herein). Microvascular blood flow is monitored by attaching a self adhesive laser Doppler flow probe to the facial skin.
Compound Administration Test compounds may be administered i.v. (0.01-5 ml/kg), i.m. (0.01-0.5 ml/kg), s.c. (0.01-5 ml/kg) or p.o. (0.1-10 ml/kg) (Diehl et al., 2001; incorporated by reference herein). CGRP-receptor agonists may be delivered i.v. (0.01-5 ml/kg), i.d. (10-100 μl/site) or s.c. (10-100 μl/site).

[2] = molecular target: T1, human CGRP receptor (SK-N-MC cells) (Homo sapiens, UniProt O60894+Q16602); experiment: Cyclic AMP Assay, functional antagonism of CGRP-induced cyclic AMP formation; assay type: cell-based
T1 construct: SK-N-MC cells that endogenously express the human CGRP receptor; endogenous in cells; host or cells: SK-N-MC cells
Procedure, shortened: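 SK-N-MC cells, which endogenously express human CGRP receptor, stimulated with 0.3 nM CGRP with or without compound for 30 min at room temperature. Cellular cAMP extracted by lysis and quantified by SPA radioimmunoassay; IC50 from inhibition of CGRP-induced cAMP.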

[3] = molecular target: T1, human CGRP receptor (SK-N-MC cells); experiment: Schild analysis of CGRP stimulated cAMP production; assay type: cell-based; conditions: for slope: Schild plot slope
Procedure: Functional Antagonism. Antagonism of the compounds of invention was determined by measuring the formation of cyclic AMP (adenosine 3′5′-cyclic monophosphate) in SK-N-MC cells that endogenously express the human CGRP receptor. CGRP receptor complex is coupled with Gs protein and CGRP binding to this complex leads to the cyclic AMP production via Gs—dependent activation of an adenylate cyclase (Juaneda C et al., TiPS, 2000; 21:432-438; incorporated by reference herein). Consequently, CGRP receptor antagonists inhibit CGRP-induced cyclic AMP formation in SK-N-MC cells (Doods H et al., Br J Pharmacol, 2000; 129(3):420-423); incorporated by reference herein). For cyclic AMP measurements SK-N-MC cells were incubated with 0.3 nM CGRP alone or in the presence of various concentrations of the compounds of invention for 30 min at room temperature. Compounds of invention were pre-incubated with SK-N-MC cells for 15 min before the addition of CGRP to allow receptor occupancy (Edvinsson et al., Eur J Pharmacol, 2001, 415:39-44; incorporated by reference herein). Cyclic AMP was extracted using the lysis reagent and its concentration was determined by radioimmunoassay using RPA559 cAMP SPA Direct Screening Assay Kit (Amersham Pharmacia Biotech). IC50 values were calculated using Excel fit.
Schild Analysis. Schild analysis can be used to characterize the nature of antagonism of the compounds of invention. The dose response of CGRP stimulated cAMP production was generated either with CGRP alone, or in the presence of various concentrations of compounds of invention. The antagonist dose is plotted as X against the dose ratio (defined as IC50 of agonist with the presence of the compounds divided by the IC50 of the agonist alone) minus 1 as Y. Linear regression was then performed with both X and Y axis log-transformed. […] Kb is the dissociation constant of the antagonist.

[4] = molecular target: T2, CGRP receptor (SK-N-MC cell membranes) (Homo sapiens, UniProt O60894+Q16602); experiment: CGRP Binding Assay ([125I]-CGRP radioligand binding, SK-N-MC homogenate); conditions: displacement of [125I]-CGRP, SK-N-MC homogenate; read-out: CGRP binding IC50
T2 construct: endogenous in cells; host or cells: SK-N-MC cells (membrane homogenate)

[5] = system: human cerebral vessels (CGRP-induced dilation); experiment: Ex Vivo Human Cerebral Artery Assay, reversal of CGRP-induced relaxation; conditions: reversal of 1 nM hCGRP-induced relaxation, vessels pre-contracted with 10 mM KCl
Source text: Rationale and Overview. To provided direct evidence of the ability for novel compounds to reverse CGRP-induced dilation in human cerebral vessels, an ex vivo assay was design. Briefly, isolated vessel rings were mounted in a tissue bath where vessels were pre-contracted with potassium chloride (KCl) and fully dilated with hCGRP, then this relaxation was reversed by the cumulative addition of CGRP-receptor antagonists (complete details follow).
Tissue Samples. Autopsy samples of human arteries were obtained from vendors (ABS Inc. or NDRI). All vessels were transported on ice-cold HEPES buffer (composition in mM: NaCl 130, KCl 4, KH2PO4 1.2, MgSO4 1.2, CaCl2 1.8, Glucose 6, NaHCO3 4, HEPES 10, EDTA 0.025). Upon receipt, the vessels were placed in cold Kreb's buffer (composition in mM: NaCl 118.4, KCl 4.7, KH2PO4 1.2, MgSO4 1.2, CaCl2 1.8, Glucose 10.1, NaHCO3 25) saturated with carbogen (5% CO2 and 95% oxygen).
Isolated Tissue Baths. The vessels were cleaned of connective tissues and cut into cylindrical segments of 4-5 mm in length. The vessels were then mounted in tissue baths between two stainless steel hooks; one of which is fixed and the other of which was connected to a force displacement transducer. The vessel tension was continuously recorded using a data acquisition system (Powerlab, ADInstruments, Mountain View, Calif.) connected to the transducer. The tissue baths containing Krebs buffer and mounted vessels were temperature (37° C.) and pH (7.4) controlled with continuous bubbling of carbogen. The artery segments were allowed to equilibrate for about 30-45 min until a stable resting tone was achieved. Prior to the assay, vessels were primed (conditioned) with 100 mM KCl and subsequently washed. The vessels were pre-contracted with 10 mM KCl and fully dilated with 1 nM hCGRP. Concentration-response curves to CGRP-receptor antagonists were performed by the cumulative addition of drugs in half log units in fully dilated vessels. At each concentration, the effects of the drugs were expressed as % reversal of CGRP-induced relaxation in each vessel. The actual assay and data analysis were performed for each vessel individually, fitting the concentration-response data to a four parameter logistic function by non-linear regression analysis, to estimate the EC50 values.

[6] = SK-N-MC cells, 0.3 nM CGRP, read-out: cAMP Function IC50
[7] = Schild analysis, dissociation constant of the antagonist, read-out: Kb

T2 sequence (Q16602 23-461): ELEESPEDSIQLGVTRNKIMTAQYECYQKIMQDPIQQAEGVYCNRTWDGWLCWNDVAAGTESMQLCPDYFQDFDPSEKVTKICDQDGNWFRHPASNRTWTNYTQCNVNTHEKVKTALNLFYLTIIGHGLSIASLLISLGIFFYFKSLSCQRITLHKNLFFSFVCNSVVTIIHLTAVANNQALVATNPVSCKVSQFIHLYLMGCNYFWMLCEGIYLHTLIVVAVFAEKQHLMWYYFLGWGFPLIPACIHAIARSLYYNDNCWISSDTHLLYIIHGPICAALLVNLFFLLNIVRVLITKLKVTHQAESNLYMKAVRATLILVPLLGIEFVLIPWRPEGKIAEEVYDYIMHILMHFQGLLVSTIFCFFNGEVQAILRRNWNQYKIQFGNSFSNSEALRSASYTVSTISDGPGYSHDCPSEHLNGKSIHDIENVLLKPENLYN
T2 sequence (O60894 27-148): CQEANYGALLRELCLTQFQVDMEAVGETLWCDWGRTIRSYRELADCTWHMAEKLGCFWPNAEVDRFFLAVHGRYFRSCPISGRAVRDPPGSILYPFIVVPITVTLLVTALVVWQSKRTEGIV
T1 sequence (Q16602 23-461): as the sequence (Q16602 23-461) above
T1 sequence (O60894 27-148): as the sequence (O60894 27-148) above

| Compound | % Inhibition of CGRP-induced increase in laser Doppler facial blood flow ([1]; 1 mg/kg) | inhibition of CGRP-induced increase in laser Doppler facial blood flow (in words) [1] | IC50 [2] | slope [3] | IC50 [4] | EC50 [5] | % Inhibition of CGRP-induced increase in laser Doppler facial blood flow ([1]; 0.01 mg/kg) | % Inhibition of CGRP-induced increase in laser Doppler facial blood flow ([1]; 0.03 mg/kg) | % Inhibition of CGRP-induced increase in laser Doppler facial blood flow ([1]; 0.1 mg/kg) | % Inhibition of CGRP-induced increase in laser Doppler facial blood flow ([1]; 0.3 mg/kg) | Kb [3] | IC50 [2, 6] | Kb [3, 7] |
| --- | --- | --- | --- | --- | --- | --- | --- | --- | --- | --- | --- | --- | --- |
| hαCGRP(8-37): "the peptide antagonist hαCGRP(8-37)" [reference compound] | Z (Z>75%) | dose-dependently inhibited | – | – | – | – | – | – | – | – | – | – | – |
| Cc1cc(CC(CC(=O)N2CCC(N3Cc4ccccc4NC3=O)CC2)C(=O)N2CCC3(CC2)OCCO3)cc2cn[nH]c12 (racemic) [Example 70, (±)-1-(1,4-Dioxa-8-aza-spiro[4.5]dec-8-yl)-2-(7-methyl-1H-indazol-5-ylmethyl)-4-[4-(2-oxo-1,4-dihydro-2H-quinazolin-3-yl)-piperidin-1-yl]-butane-1,4-dione] | – | – | < 10 nM | 0.71 | < 10 nM | < 10 nM | – | – | – | – | – | – | – |
| O=C(NC(Cc1ccc2[nH]ncc2c1)C(=O)N1CCC(N2CCCCC2)CC1)N1CCC(N2Cc3ccccc3NC2=O)CC1 (racemic) [Example 6, (±)-4-(2-Oxo-1,4-dihydro-2H-quinazolin-3-yl)-piperidine-1-carboxylic acid[2-[1,4′]bipiperidinyl-1′-yl-1-(1H-indazol-5-ylmethyl)-2-oxo-ethyl]-amide] | Z (Z>75%) | – | – | 0.93 | – | < 10 nM | – | – | – | – | – | – | – |
| O=C(N[C@H](Cc1ccc2[nH]ncc2c1)C(=O)N1CCC(N2CCCCC2)CC1)N1CCC(N2Cc3ccccc3NC2=O)CC1 [Example 2, (R)-4-(2-Oxo-1,4-dihydro-2H-quinazolin-3-yl)-piperidine-1-carboxylic acid[2-[1,4′]bipiperidinyl-1′-yl-1-(1H-indazol-5-ylmethyl)-2-oxo-ethyl]-amide] | Z (Z>75%) | dose-dependently inhibits | – | 0.94 | – | < 10 nM | W (W≦25%) | X (25%<X≦50%) | X (25%<X≦50%) | Y (50%<Y≦75%) | – | – | – |
| Cc1cc(CC(CC(=O)N2CCC3(CC2)OC(=O)Nc2ccccc23)C(=O)N2CCC3(CC2)OCCO3)cc2cn[nH]c12 (racemic) [Example 71, (±)-1-(1,4-Dioxa-8-aza-spiro[4.5]dec-8-yl)-2-(7-methyl-1H-indazol-5-ylmethyl)-4-[1′,2′-dihydro-2′-oxospiro-[4H-3′,1-benzoxazine-4,4′-piperidinyl]-butane-1,4-dione] | – | – | < 10 nM | 0.87 | < 10 nM | < 10 nM | – | – | – | – | 2 nM | – | – |
| Cc1cc(CC(NC(=O)N2CCC(N3Cc4ccccc4NC3=O)CC2)C(=O)N2CCN(c3ccncc3)CC2)cc2cn[nH]c12 (racemic) [Example 21, (±)-4-(2-Oxo-1,4-dihydro-2H-quinazolin-3-yl)-piperidine-1-carboxylic acid[1-(7-methyl-1H-indazol-5-ylmethyl)-2-oxo-2-(4-pyridin-4-yl-piperazin-1-yl)-ethyl]-amide] | – | – | – | 0.89 | < 10 nM | < 10 nM | – | – | – | – | – | < 10 nM | 0.018 nM |
| Cc1cc(CC(NC(=O)N2CCC(N3Cc4ccccc4NC3=O)CC2)C(=O)N2CCCCC2)cc2cn[nH]c12 (racemic) [Example 17, (±)-4-(2-Oxo-1,4-dihydro-2H-quinazolin-3-yl)-piperidine-1-carboxylic acid[1-(7-methyl-1H-indazol-5-ylmethyl)-2-oxo-2-piperidin-1-yl-ethyl]-amide] | – | – | – | 0.92 | < 10 nM | < 10 nM | – | – | – | – | – | < 10 nM | 1.1 nM |
| O=C(NC(Cc1ccc2[nH]ccc2c1)C(=O)N1CCC(N2CCCCC2)CC1)N1CCC(n2c(=O)[nH]c3ccccc32)CC1 (racemic) [Example 3, (±)-4-(2-Oxo-2,3-dihydro-benzoimidazol-1-yl)-piperidine-1-carboxylic acid[2-[1,4′]bipiperidinyl-1′-yl-1-(1H-indol-5-ylmethyl)-2-oxo-ethyl]-amide] | – | – | – | 0.96 | 10 to 100 nM | 10 to 100 nM | – | – | – | – | – | 10 to 100 nM | 55 nM |
